We go through 6 compounds from patent US6602865B1, “Pyridazino(4,5-b)(1,5)oxazepinone, -thiazepinone and -diazepinone compounds” (IVAX Drug Research Institute, Ltd., priority 1998, dated 2003).

One experiment relates to scopolamine-induced memory-deficit in rats. In words: Passive avoidance test, scopolamine-induced memory deficit in rats. The format is in vivo, rat. The following applies: oral dose 50 mg/kg. As for the experimental part:
The memory-enhancing effect of the compounds according to the invention was measured by counter-balancing the scopolamine-induced memory-deficit in rats, with oral doses of 50 mg/kg, in the passive avoidance test published by Cumin, R. et al. [Psychopharmacology, 78, 104 (1982)].
In the case of `O=c1c2c(cnn1CC=Cc1ccccc1)N(Cc1ccccc1)CCCO2` [Example 7, 5-Benzyl-8-cynnamyl-2,3,4,5-tetrahydro-9(8H)-pyridazino[4,5-b][1,5]oxazepinone], the “Memory improvement compared to amnesic control (%)” value is listed as 250%.

A further experiment deals with AMPA. In words: AMPA-induced spreading depression of chick retina. Particulars: 20 μM. The method, then: The AMPA antagonistic effect of the compounds was also tested on spreading depression of chick retina (Sheardown, M. J.: Brain Res., 1993, 607, 189) in a concentration of 20 μM.
For `O=c1c2c(cnn1-c1ccccc1)C(Cc1ccccc1)NCCS2` (stereo not shown) [Example 13, 5-Benzyl-8-phenyl-2,3,4,5-tetrahydro-9(8H)-pyridazino[4,5-b]-[1,5]thiazepinone], the “Antagonistic effect on AMPA-induced spreading depression (%)” value (“Antagonistic effect … (%)” below) is 48%.

On to `Cn1ncc2c(c1=O)OCCNC2Cc1ccccc1` (stereo not shown) [Example 4, 5-Benzyl-8-methyl-2,3,4,5-tetrahydro-9(8H)-pyridazino[4,5-b][1,5]oxazepinone], for which the “Antagonistic effect … (%)” value turned out to be 17%.

`Cn1ncc2c(c1=O)SCCNC2C(=O)c1ccccc1` (stereo not shown) [Example 3, 5-Benzoyl-8-methyl-2,3,4,5-tetrahydro-9(8H)-pyridazino[4,5-b][1,5]thiazepinone]: the “Antagonistic effect … (%)” value was 10%.

Turning to `O=c1c2c(cnn1CC=Cc1ccccc1)N(Cc1ccccc1)CCCO2` [Example 7, 5-Benzyl-8-cynnamyl-2,3,4,5-tetrahydro-9(8H)-pyridazino[4,5-b][1,5]oxazepinone], the “Antagonistic effect … (%)” value is reported as 16%.

Take `Cn1ncc2c(c1=O)SCCNC2Cc1ccccc1` (stereo not shown) [Example 11, 5-Benzyl-8-methyl-2,3,4,5-tetrahydro-9(8H)-pyridazino[4,5-b][1,5]thiazepinone]: the “Antagonistic effect … (%)” value stood at 28%.

Regarding `Cn1ncc2c(c1=O)SCCNC2Cc1ccc(Cl)cc1` (stereo not shown) [Example 12, 5-(4-Chlorobenzyl)-8-methyl-2,3,4,5-tetrahydro-9(8H)-pyridazino[4,5-b]-[1,5]thiazepinone], the “Antagonistic effect … (%)” value is given as 32%.
